Measured values taken from patent publication US4623626A (priority 1982, dated 1986).
“Also recorded” adds a separate entry of the source. Where two headings read alike, the source gives them in different places.

What was measured:
[1] = target: T1, L-glutamic acid oxidase (enzyme of the present invention) (Streptomyces sp, UniProt Q8L3C7); test: Effects of additives on the enzyme activity (inhibition, activation); format: biochemical, Streptomyces sp. X-119-6; conditions: additive 1 mM
T1 construct: isolated and purified the enzyme of the present invention as a single enzyme protein from such a cultured product of the microorganism; made in house; host or cells: natural producer, Streptomyces sp; (strain X-119-6 per the earlier reading); enzyme purified from the cultured product, not recombinant
T1 sequence (Q8L3C7 15-390 limits assumed): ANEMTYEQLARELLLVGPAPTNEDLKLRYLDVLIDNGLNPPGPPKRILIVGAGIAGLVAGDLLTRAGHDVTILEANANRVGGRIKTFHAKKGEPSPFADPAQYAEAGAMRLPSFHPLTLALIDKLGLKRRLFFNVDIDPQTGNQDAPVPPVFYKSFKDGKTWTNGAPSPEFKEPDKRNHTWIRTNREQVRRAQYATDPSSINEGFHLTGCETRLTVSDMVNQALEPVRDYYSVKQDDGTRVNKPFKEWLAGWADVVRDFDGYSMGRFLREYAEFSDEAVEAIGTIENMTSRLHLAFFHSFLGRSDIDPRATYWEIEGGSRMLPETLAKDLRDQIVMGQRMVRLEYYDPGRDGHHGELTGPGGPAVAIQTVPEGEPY
T1 sequence (Q8L3C7 391-520 limits assumed): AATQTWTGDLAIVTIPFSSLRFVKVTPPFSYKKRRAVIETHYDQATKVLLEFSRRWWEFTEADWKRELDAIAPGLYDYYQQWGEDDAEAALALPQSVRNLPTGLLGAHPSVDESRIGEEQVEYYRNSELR
T1 sequence (Q8L3C7 521-701 limits assumed): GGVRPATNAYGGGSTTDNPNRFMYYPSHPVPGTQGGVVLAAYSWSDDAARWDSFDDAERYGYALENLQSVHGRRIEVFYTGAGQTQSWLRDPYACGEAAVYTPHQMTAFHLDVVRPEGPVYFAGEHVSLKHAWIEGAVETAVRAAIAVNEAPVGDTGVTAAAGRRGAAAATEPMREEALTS
Protocol: For examination of the effects of various additives on the enzyme activity of the present invention, enzymatic reaction was carried out in a reaction mixture (pH 7.4) containing each of the substances shown in Table 2 at a concentration of 1 mM.

[2] = test system: glutamic acid oxidase (known enzyme); conditions: cited from earlier work
[3] = target: T1, L-glutamic acid oxidase (enzyme of the present invention); test: Substrate specificity of the enzyme of the present invention, oxygen electrode method; format: biochemical, Streptomyces sp. X-119-6
Protocol: The concentration of each substrate was 10 mM, and the reactions were carried out at pH 7.4 (0.1 M potassium phosphate buffer) and pH 6.0 (0.1 M acetate buffer).

[4] = target: T1, L-glutamic acid oxidase (enzyme of the present invention); test: km values of the enzyme of the present invention; format: biochemical, Streptomyces sp. X-119-6; conditions: pH 7.4
Protocol: That is, 1 ml of 0.1 M potassium phosphate buffer (pH 7.4) containing 10 mM sodium L-glutamate was charged into an oxygen electrode cell and 10 μl of an enzyme solution was added thereto to measure the oxygen consumption rate. One unit of enzyme was determined as the amount of enzyme which consumes 1μ mol of oxygen per minute at 30° C. in the absence of catalase (unit: hereinafter abbreviated as "U").

[5] = pH of 6.0 or less or pH 10.0 or more
[6] = test system: glutamic acid oxidase (known enzyme); conditions: cited from earlier work; for activity of the known enzyme for the substrate: relative to L-glutamic acid; for relative activity of the known enzyme: velocity for L-glutamic acid given as 100

[Ca+2].[Cl-].[Cl-] [CaCl2]
Relative activity ([1]; reaction mixture pH 7.4, no addition = 100): 100.0

[Cl][Cu][Cl] [CuCl2, cupric chloride]
inhibition of the activity of the enzyme of the present invention ([1]; pH 7.4): not inhibited at all
inhibition of the known enzyme [2]: completely inhibited

N[C@H](CCC(=O)O)C(=O)O [D-Glutamic acid]
activity of the enzyme of the present invention for the substrate [3]: substantially no activity

N[C@@H](CC(=O)O)C(=O)O [L-Aspartic acid]
Km [4]: 29 mM
action of the enzyme of the present invention on the substrate [5]: substantially no action
activity of the enzyme of the present invention for the substrate ([3]; pH 6.0): substantially no activity
activity of the known enzyme for the substrate [6]: ≤ 0.1%

NC(=O)CC[C@H](N)C(=O)O [L-Glutamine]
activity of the enzyme of the present invention for the substrate [3]: substantially no activity
activity of the known enzyme for the substrate [6]: 8.4%
relative activity of the known enzyme [6]: 8.4

N[C@@H](Cc1c[nH]cn1)C(=O)O [L-Histidine]
activity of the enzyme of the present invention for the substrate [3]: substantially no activity
activity of the known enzyme for the substrate [6]: 6.8%
relative activity of the known enzyme [6]: 6.8

[Cu+2] [copper ions]
inhibition of the known enzyme [2]: Substantially completely inhibited; also recorded: markedly inhibited
